The text below walks through data of patent publication US20260022142A1, “MACROCYCLIC IMMUNOMODULATORS” (Bristol-Myers Squibb Company, priority 2022, published 2026).

Numbered stars: 1 amine (or outer) side, 2 acyl side, 3 side chain; on linkers, the order of the positions; unused ones are H or OH. Bridge positions count the residues as written; N and C are the ends. Square brackets hold non-standard residues; d marks the D form. Peptide text beside a SMILES is read from it. * marks the point of attachment. Bip = N[C@@H](Cc1ccc(-c2ccccc2)cc1)C(=O)O; X10 = O=C([C@H](Cc1cc[nH]c1)N[*:1])[*:2]; Phe(3-Me) = Cc1cccc(C[C@H](N)C(=O)O)c1; Cha = N[C@@H](CC1CCCCC1)C(=O)O; Cit = NC(=O)NCCC[C@H](N)C(=O)O; Carboxymethyl = O=C(O)C*; Orn = NCCC[C@H](N)C(=O)O; Aun = NCCCCCCCCCCC(=O)O; Dab = NCC[C@H](N)C(=O)O; Dap = NC[C@H](N)C(=O)O

For the test, the target named is T1, PD-1/PD-L1 interaction (PE-labeled human PD-L1-Ig binding to Jurkat cell line over-expressing human PD-1) (Homo sapiens, UniProt Q15116).
T1 construct: expressed in transfected cells; host or cells: Jurkat
T1 sequence (Q15116 25-288): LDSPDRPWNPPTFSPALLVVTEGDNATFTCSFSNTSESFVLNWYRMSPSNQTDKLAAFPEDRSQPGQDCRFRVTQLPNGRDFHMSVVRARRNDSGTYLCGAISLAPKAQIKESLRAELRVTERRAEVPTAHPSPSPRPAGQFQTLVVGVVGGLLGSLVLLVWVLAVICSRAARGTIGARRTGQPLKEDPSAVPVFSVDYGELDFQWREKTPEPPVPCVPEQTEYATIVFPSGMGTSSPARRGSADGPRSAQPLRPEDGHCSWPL
Kind of test: Jurkat-PD-1 Cell Binding High-Content Screening Assay (CBA). The class given is cell-based. The following applies: Jurkat cell line over-expressing human PD-1; PE-labeled PD-L1-Ig 20 nM final; read-out: Jurkat hPD1-PDL1 IC50. An outline of the steps: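 Read-out is high-content imaging of cell-bound phycoerythrin-tagged PD-L1-Ig on fixed, Hoechst-counterstained Jurkat cells that over-express human PD-1. Compound exposure lasts 2 h at 37° C before the labeled ligand (20 nM final) is added for a further hour.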
`Cc1cccc(C[C@@H]2NC(=O)[C@H](CC(=O)O)NC(=O)[C@H](Cc3ccc(OCC(=O)O)cc3)NC(=O)[C@H](CCCNC(=N)N)NC(=O)CSC[C@@H](C(=O)N[C@@H](CCCN)C(=O)NCCCCCCCCCCC(=O)O)NC(=O)[C@@H](CCC(N)=O)NC(=O)[C@H](C(C)C)NC(=O)[C@H](CC3CCCCC3)NC(=O)[C@H](CCN)NC(=O)[C@@H](CC(C)C)NC(=O)[C@H](CCN)NC(=O)[C@H](CCCNC(N)=O)NC(=O)[C@H](Cc3ccc(-c4ccccc4)cc3)NC(=O)[C@H](C(C)C)NC2=O)c1` [Compound 2799] ({CH2CO}-RY(Carboxymethyl)D[Phe(3-Me)]V[Bip][Cit][Dab][dL][Dab][Cha]V[dQ]C[Orn][Aun]-OH; thioether N-14): the 50% inhibitory concentration (IC50) stood at 20 nM.
Regarding `Cc1cccc(C[C@@H]2NC(=O)[C@H](CC(=O)O)NC(=O)[C@H](Cc3ccc(O)cc3)NC(=O)[C@H](CC(N)=O)NC(=O)CSC[C@@H](C(=O)N[C@@H](CCCCN)C(=O)NCCCCCCCCCCC(=O)O)NC(=O)[C@H](CN)NC(=O)[C@H](C(C)C)NC(=O)[C@H](CC(C)C)NC(=O)[C@H](CCN)NC(=O)[C@@H](CC(C)C)NC(=O)[C@H](CCCN)NC(=O)[C@H](CCCNC(N)=O)NC(=O)[C@H](Cc3ccc(-c4ccccc4)cc3)NC(=O)[C@H](C(C)C)NC2=O)c1` [Compound 2800] ({CH2CO}-NYD[Phe(3-Me)]V[Bip][Cit][Orn][dL][Dab]LV[Dap]CK[Aun]-OH; thioether N-14), the IC50 came to 84.6 nM.
The value for `CC(C)C[C@H]1NC(=O)[C@H](CCCN)NC(=O)[C@H](C(C)C)NC(=O)[C@H](Cc2ccc(-c3ccccc3)cc2)NC(=O)[C@H](C(C)C)NC(=O)[C@H](Cc2c[nH]c3ccccc23)NC(=O)[C@H](CC(=O)O)NC(=O)[C@H](Cc2ccc(OCC(=O)O)cc2)NC(=O)[C@H](CN)NC(=O)CSC[C@@H](C(=O)N[C@@H](CCCCN)C(=O)NCCCCCCCCCCC(=O)O)NC(=O)[C@H](CN)NC(=O)[C@H](C(C)C)NC(=O)[C@H](CC2CCCCC2)NC(=O)[C@H](Cc2cc[nH]c2)NC1=O` [Compound 2801] ({CH2CO}-[Dap]Y(Carboxymethyl)DWV[Bip]V[Orn][dL][X10][Cha]V[Dap]CK[Aun]-OH; thioether N-14) was 327 nM.
On to `Cc1cccc(C[C@@H]2NC(=O)[C@H](CC(=O)O)NC(=O)[C@H](Cc3ccc(OCC(=O)O)cc3)NC(=O)[C@H](CCCNC(=N)N)NC(=O)CSC[C@@H](C(=O)N[C@@H](CCCCN)C(=O)NCCCCCCCCCCC(=O)O)NC(=O)[C@H](CN)NC(=O)[C@H](C(C)C)NC(=O)[C@H](CC3CCCCC3)NC(=O)[C@H](CCN)NC(=O)[C@@H](CC(C)C)NC(=O)[C@H](CCN)NC(=O)[C@H](CCCNC(N)=O)NC(=O)[C@H](Cc3ccc(-c4ccccc4)cc3)NC(=O)[C@H](C(C)C)NC2=O)c1` [Compound 2802] ({CH2CO}-RY(Carboxymethyl)D[Phe(3-Me)]V[Bip][Cit][Dab][dL][Dab][Cha]V[Dap]CK[Aun]-OH; thioether N-14), for which the IC50 turned out to be 15.4 nM.
The value for `Cc1cccc(C[C@@H]2NC(=O)[C@H](CC(=O)O)NC(=O)[C@H](Cc3ccc(O)cc3)NC(=O)[C@H](CC(N)=O)NC(=O)CSC[C@@H](C(=O)N[C@@H](CCCCN)C(=O)NCCCCCCCCCCC(=O)O)NC(=O)[C@H](CCCN)NC(=O)[C@H](C(C)C)NC(=O)[C@H](CC(C)C)NC(=O)[C@H](CCN)NC(=O)[C@@H](CC(C)C)NC(=O)[C@H](CCCN)NC(=O)[C@H](CCCNC(N)=O)NC(=O)[C@H](Cc3ccc(-c4ccccc4)cc3)NC(=O)[C@H](C(C)C)NC2=O)c1` [Compound 2803] ({CH2CO}-NYD[Phe(3-Me)]V[Bip][Cit][Orn][dL][Dab]LV[Orn]CK[Aun]-OH; thioether N-14) was 73.9 nM.
